The record followed here is patent publication US20260022142A1, “MACROCYCLIC IMMUNOMODULATORS” (Bristol-Myers Squibb Company, priority 2022, published 2026).

pIC50: −log10 of the molar value. Bridge positions count the residues as written; N and C are the ends. Square brackets hold non-standard residues; d marks the D form. Peptide text beside a SMILES is read from it. * marks the point of attachment. ξ: configuration not given here. Phe(3-CF3) = N[C@@H](Cc1cccc(C(F)(F)F)c1)C(=O)O; Ala(morpholin-4-yl) = N[C@@H](CN1CCOCC1)C(=O)O; Phe(4-CONH2) = NC(=O)c1ccc(C[C@H](N)C(=O)O)cc1; Phe(4-COOH) = N[C@@H](Cc1ccc(C(=O)O)cc1)C(=O)O; Bip = N[C@@H](Cc1ccc(-c2ccccc2)cc1)C(=O)O; X14 = N[C@H](CN*)C(=O)NCCCCCCCCCCC(=O)O; NH(CH2)14COOH = O=C(O)CCCCCCCCCCCCCCN*; Phe(3-Me) = Cc1cccc(C[C@H](N)C(=O)O)c1; Phe(4-F) = N[C@@H](Cc1ccc(F)cc1)C(=O)O; NH(CH2)12COOH = O=C(O)CCCCCCCCCCCCN*; Val(3-OH) = CC(C)(O)[C@H](N)C(=O)O; 4Pal = N[C@@H](Cc1ccncc1)C(=O)O; Cha = N[C@@H](CC1CCCCC1)C(=O)O; Cit = NC(=O)NCCC[C@H](N)C(=O)O; Thr(3ξ) = CC(O)[C@H](N)C(=O)O; Tle = CC(C)(C)[C@H](N)C(=O)O; 12Ado = NCCCCCCCCCCCC(=O)O; Carboxymethyl = O=C(O)C*; Orn = NCCC[C@H](N)C(=O)O; Aun = NCCCCCCCCCCC(=O)O; Dab = NCC[C@H](N)C(=O)O; Dap = NC[C@H](N)C(=O)O; AEEA = NCCOCCOCC(=O)O

The target in the test is T1, PD-1/PD-L1 interaction (PE-labeled human PD-L1-Ig binding to Jurkat cell line over-expressing human PD-1) (Homo sapiens, UniProt Q15116).
T1 construct: expressed in transfected cells; host or cells: Jurkat
T1 sequence (Q15116 25-288): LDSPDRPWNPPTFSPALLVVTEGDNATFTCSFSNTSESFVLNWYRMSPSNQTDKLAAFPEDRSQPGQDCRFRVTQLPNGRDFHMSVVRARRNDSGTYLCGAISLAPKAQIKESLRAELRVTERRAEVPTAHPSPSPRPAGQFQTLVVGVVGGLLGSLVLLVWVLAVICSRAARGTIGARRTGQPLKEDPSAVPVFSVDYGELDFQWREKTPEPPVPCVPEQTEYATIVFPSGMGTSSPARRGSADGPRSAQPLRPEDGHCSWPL
In words: Jurkat-PD-1 Cell Binding High-Content Screening Assay (CBA). The note with it: Jurkat cell line over-expressing human PD-1; PE-labeled PD-L1-Ig 20 nM final; read-out: Jurkat hPD1-PDL1 IC50. The format is cell-based. Summed up:
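Jurkat cells over-expressing human PD-1 (8×10^3 per well, DMEM/10% FCS) preincubated with compound 2 h at 37° C, then PE-labeled human PD-L1-Ig (20 nM final) added for 1 h. Cells fixed with paraformaldehyde, Hoechst-stained, and bound fluorescence quantified by high-content imaging.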
By pIC50 is commonly meant −log10 of the IC50, conventionally taken in molar units. Consider `Cc1cccc(C[C@@H]2NC(=O)[C@H](CC(=O)O)NC(=O)[C@H](Cc3ccc(OCC(=O)O)cc3)NC(=O)[C@H](Cc3ccncc3)NC(=O)CSC[C@@H](C(=O)N[C@@H](CCN)C(=O)NCCOCCOCC(=O)NCCCCCCCCCCC(=O)O)NC(=O)[C@H](CCC(=O)O)NC(=O)[C@H](C(C)(C)O)NC(=O)[C@H](CC3CCCCC3)NC(=O)[C@H](CCN)NC(=O)[C@@H](CC(C)C)NC(=O)[C@H](CCCN)NC(=O)[C@H](Cc3ccc(C(=O)O)cc3)NC(=O)[C@H](Cc3ccc(-c4ccccc4)cc3)NC(=O)[C@H](Cc3ccc(C(=O)O)cc3)NC2=O)c1` [Compound 3744] ({CH2CO}-[4Pal]Y(Carboxymethyl)D[Phe(3-Me)][Phe(4-COOH)][Bip][Phe(4-COOH)][Orn][dL][Dab][Cha][Val(3-OH)]EC[Dab][AEEA][Aun]-OH; thioether N-14), for which the pIC50 is 7.78.

For the compound `CC(C)C[C@H]1NC(=O)[C@H](CCCN)NC(=O)[C@H](C(C)C)NC(=O)[C@H](Cc2ccc(-c3ccccc3)cc2)NC(=O)[C@H](C(C)C)NC(=O)[C@H](Cc2c[nH]c3ccccc23)NC(=O)[C@H](CC(=O)O)NC(=O)[C@H](Cc2ccc(OCC(=O)O)cc2)NC(=O)[C@H](CCCNC(=N)N)NC(=O)CSC[C@@H](C(=O)NCC(=O)NCCOCCOCC(=O)N[C@@H](CCCN)C(=O)NCCCCCCCCCCC(=O)O)NC(=O)[C@H](CCN)NC(=O)[C@H](C(C)C)NC(=O)[C@H](CC2CCCCC2)NC(=O)[C@H](CCN)NC1=O` [Compound 3241] ({CH2CO}-RY(Carboxymethyl)DWV[Bip]V[Orn][dL][Dab][Cha]V[Dab]CG[AEEA][Orn][Aun]-OH; thioether N-14), the pIC50 was 7.93.

Regarding `Cc1cccc(C[C@@H]2NC(=O)[C@H](CC(=O)O)NC(=O)[C@H](Cc3ccc(F)cc3)NC(=O)[C@H](Cc3ccncc3)NC(=O)CSC[C@@H](C(=O)N[C@@H](CCN)C(=O)NCCCCCCCCCCC(=O)O)NC(=O)[C@H](CO)NC(=O)[C@H](C(C)(C)O)NC(=O)[C@H](CC3CCCCC3)NC(=O)[C@H](Cc3c[nH]cn3)NC(=O)[C@@H](CC(C)C)NC(=O)[C@H](CCCN)NC(=O)[C@H](Cc3ccc(OCC(=O)O)cc3)NC(=O)[C@H](Cc3ccc(-c4ccccc4)cc3)NC(=O)[C@H](Cc3ccc(OCC(=O)O)cc3)NC2=O)c1` [Compound 3734] ({CH2CO}-[4Pal][Phe(4-F)]D[Phe(3-Me)]Y(Carboxymethyl)[Bip]Y(Carboxymethyl)[Orn][dL]H[Cha][Val(3-OH)]SC[Dab][Aun]-OH; thioether N-14), the pIC50 is 6.89.

For `Cc1cccc(C[C@@H]2NC(=O)[C@H](CC(=O)O)NC(=O)[C@H](Cc3ccc(OCC(=O)O)cc3)NC(=O)[C@H](CCN)NC(=O)CSC[C@@H](C(=O)N[C@@H](CCN)C(=O)NCCOCCOCC(=O)NCCOCCOCC(=O)NCCCCCCCCCCCCC(=O)O)NC(=O)[C@H](CCC(=O)O)NC(=O)[C@H](C(C)(C)O)NC(=O)[C@H](CC3CCCCC3)NC(=O)[C@H](Cc3c[nH]cn3)NC(=O)[C@@H](CC(C)C)NC(=O)[C@H](CCCN)NC(=O)[C@H](Cc3ccc(C(=O)O)cc3)NC(=O)[C@H](Cc3ccc(-c4ccccc4)cc3)NC(=O)[C@H](Cc3ccc(C(=O)O)cc3)NC2=O)c1` [Compound 2888] ({CH2CO}-[Dab]Y(Carboxymethyl)D[Phe(3-Me)][Phe(4-COOH)][Bip][Phe(4-COOH)][Orn][dL]H[Cha][Val(3-OH)]EC[Dab][AEEA][AEEA]-{NH(CH2)12COOH}; thioether N-14), the pIC50 is 7.42.

With `Cc1cccc(C[C@@H]2NC(=O)[C@H](CC(=O)O)NC(=O)[C@H](Cc3ccc(OCC(=O)O)cc3)NC(=O)[C@H](CCN)NC(=O)CSC[C@@H](C(=O)NCCOCCOCC(=O)NCCCCCCCCCCC(=O)O)NC(=O)[C@H](C(C)O)NC(=O)[C@H](C(C)(C)O)NC(=O)[C@H](CC3CCCCC3)NC(=O)[C@H](CCN)NC(=O)[C@@H](CC(C)C)NC(=O)[C@H](CCCN)NC(=O)[C@H](Cc3ccc(O)cc3)NC(=O)[C@H](Cc3ccc(-c4ccccc4)cc3)NC(=O)[C@H](Cc3ccc(C(N)=O)cc3)NC2=O)c1` (stereo partly drawn) [Compound 3727] ({CH2CO}-[Dab]Y(Carboxymethyl)D[Phe(3-Me)][Phe(4-CONH2)][Bip]Y[Orn][dL][Dab][Cha][Val(3-OH)][Thr(3ξ)]C[AEEA][Aun]-OH; thioether N-14), the pIC50 was 7.30.

Turning to `Cc1cccc(C[C@@H]2NC(=O)[C@H](CC(=O)O)NC(=O)[C@H](Cc3ccc(OCC(=O)O)cc3)NC(=O)[C@H](CCN)NC(=O)CSC[C@@H](C(=O)N[C@@H](CCN)C(=O)NCCCCCCCCCCCC(=O)O)NC(=O)[C@H](CCCN)NC(=O)[C@H](C(C)(C)O)NC(=O)[C@H](CC3CCCCC3)NC(=O)[C@H](CCN)NC(=O)[C@@H](CC(C)C)NC(=O)[C@H](CCCN)NC(=O)[C@H](Cc3ccc(OCC(=O)O)cc3)NC(=O)[C@H](Cc3ccc(-c4ccccc4)cc3)NC(=O)[C@H](Cc3ccc(OCC(=O)O)cc3)NC2=O)c1` [Compound 3626] ({CH2CO}-[Dab]Y(Carboxymethyl)D[Phe(3-Me)]Y(Carboxymethyl)[Bip]Y(Carboxymethyl)[Orn][dL][Dab][Cha][Val(3-OH)][Orn]C[Dab][12Ado]-OH; thioether N-14), the pIC50 was 8.14.

Take `Cc1cccc(C[C@@H]2NC(=O)[C@H](CC(=O)O)NC(=O)[C@H](Cc3ccc(OCC(=O)O)cc3)NC(=O)[C@H](Cc3ccc(OCC(=O)O)cc3)NC(=O)CSC[C@@H](C(=O)NCC(=O)N[C@@H](CCC(=O)O)C(=O)NCCCCCCCCCCC(=O)O)NC(=O)[C@H](CO)NC(=O)[C@H](C(C)C)NC(=O)[C@H](CC(C)C)NC(=O)[C@H](CCN)NC(=O)[C@@H](CC(C)C)NC(=O)[C@H](CCCN)NC(=O)[C@H](C(C)C)NC(=O)[C@H](Cc3ccc(-c4ccccc4)cc3)NC(=O)[C@H](CC(C)C)NC2=O)c1` [Compound 1139] ({CH2CO}-Y(Carboxymethyl)Y(Carboxymethyl)D[Phe(3-Me)]L[Bip]V[Orn][dL][Dab]LVSCGE[Aun]-OH; thioether N-14): the pIC50 was 7.95.

Take `Cc1cccc(C[C@@H]2NC(=O)[C@H](CC(=O)O)NC(=O)[C@H](Cc3ccc(OCC(=O)O)cc3)NC(=O)[C@H](CN)NC(=O)CSC[C@@H](C(=O)N[C@@H](CCN)C(=O)NCCOCCOCC(=O)NCCCCCCCCCCC(=O)O)NC(=O)[C@H](CCCN)NC(=O)[C@H](Cc3ccc(O)cc3)NC(=O)[C@H](CC3CCCCC3)NC(=O)[C@H](CCN)NC(=O)[C@@H](CC(C)C)NC(=O)[C@H](CCCN)NC(=O)[C@H](CCCNC(N)=O)NC(=O)[C@H](Cc3ccc(-c4ccccc4)cc3)NC(=O)[C@H](C(C)C)NC2=O)c1` [Compound 2584] ({CH2CO}-[Dap]Y(Carboxymethyl)D[Phe(3-Me)]V[Bip][Cit][Orn][dL][Dab][Cha]Y[Orn]C[Dab][AEEA][Aun]-OH; thioether N-14): the negative-log IC50 (pIC50) was 7.75.

In the case of `CC(C)C[C@H]1NC(=O)[C@H](CCCN)NC(=O)[C@H](Cc2ccc(C(=O)O)cc2)NC(=O)[C@H](Cc2ccc(-c3ccccc3)cc2)NC(=O)[C@H](Cc2ccc(C(=O)O)cc2)NC(=O)[C@H](Cc2cccc(C(F)(F)F)c2)NC(=O)[C@H](CC(=O)O)NC(=O)[C@H](Cc2ccc(OCC(=O)O)cc2)NC(=O)[C@H](CN2CCOCC2)NC(=O)CSC[C@@H](C(=O)N[C@@H](CCN)C(=O)NCCCCCCCCCCCCCCC(=O)O)NC(=O)[C@H](CO)NC(=O)[C@H](C(C)(C)O)NC(=O)[C@H](CC2CCCCC2)NC(=O)[C@H](CCN)NC1=O` [Compound 2919] ({CH2CO}-[Ala(morpholin-4-yl)]Y(Carboxymethyl)D[Phe(3-CF3)][Phe(4-COOH)][Bip][Phe(4-COOH)][Orn][dL][Dab][Cha][Val(3-OH)]SC[Dab]-{NH(CH2)14COOH}; thioether N-14), the pIC50 was 6.43.

For `Cc1cccc(C[C@@H]2NC(=O)[C@H](CC(=O)O)NC(=O)[C@H](Cc3ccc(OCC(=O)O)cc3)NC(=O)[C@H](CN)NC(=O)CSC[C@@H](C(=O)NC[C@@H](N)C(=O)NCCCCCCCCCCC(=O)O)NC(=O)[C@H]([C@@H](C)O)NC(=O)[C@H](C(C)C)NC(=O)[C@H](CC3CCCCC3)NC(=O)[C@H](CCN)NC(=O)[C@@H](CC(C)C)NC(=O)[C@H](CCCN)NC(=O)[C@H](CCCNC(N)=O)NC(=O)[C@H](Cc3ccc(-c4ccccc4)cc3)NC(=O)[C@H](C(C)C)NC2=O)c1` [Compound 2622] ({CH2CO}-[Dap]Y(Carboxymethyl)D[Phe(3-Me)]V[Bip][Cit][Orn][dL][Dab][Cha]VTC-X14; thioether N-14), the pIC50 was 7.51.

Consider `COc1ccc(C[C@@H]2NC(=O)[C@H](Cc3ccc(-c4ccccc4)cc3)NC(=O)[C@H](Cc3ccc(O)cc3)NC(=O)[C@H](Cc3cccc(C)c3)NC(=O)[C@H](CC(=O)O)NC(=O)[C@H](Cc3ccc(OCC(=O)O)cc3)NC(=O)[C@H](CN)NC(=O)CSC[C@@H](C(=O)N[C@@H](CCN)C(=O)NCCOCCOCC(=O)NCCCCCCCCCCC(=O)O)NC(=O)[C@H](CCCN)NC(=O)[C@H](C(C)C)NC(=O)[C@H](CC3CCCCC3)NC(=O)[C@H](CCN)NC(=O)[C@@H](CC(C)C)NC(=O)[C@H](CCCN)NC2=O)cc1` [Compound 2056] ({CH2CO}-[Dap]Y(Carboxymethyl)D[Phe(3-Me)]Y[Bip]Y(Me)[Orn][dL][Dab][Cha]V[Orn]C[Dab][AEEA][Aun]-OH; thioether N-14), for which the pIC50 was 7.90.

As to `Cc1cccc(C[C@@H]2NC(=O)[C@H](CC(=O)O)NC(=O)[C@H](Cc3ccc(OCC(=O)O)cc3)NC(=O)[C@H](CCCNC(=N)N)NC(=O)CSC[C@@H](C(=O)N[C@@H](CCN)C(=O)NCCCCCCCCCCC(=O)O)NC(=O)[C@H](CO)NC(=O)[C@H](C(C)(C)C)NC(=O)[C@H](CC3CCCCC3)NC(=O)[C@H](CCN)NC(=O)[C@@H](CC(C)C)NC(=O)[C@H](CCCN)NC(=O)[C@H](Cc3ccc(OCC(=O)O)cc3)NC(=O)[C@H](Cc3ccc(-c4ccccc4)cc3)NC(=O)[C@H](Cc3c[nH]c4ccccc34)NC2=O)c1` [Compound 3531] ({CH2CO}-RY(Carboxymethyl)D[Phe(3-Me)]W[Bip]Y(Carboxymethyl)[Orn][dL][Dab][Cha][Tle]SC[Dab][Aun]-OH; thioether N-14), the pIC50 was 7.31.
